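Briefly, cells in 96-well plates were exposed to five compound concentrations for 48 h, and endpoints were estimated by linear interpolation. TGI: concentration producing complete growth inhibition.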
Legend:
Test in all cases: NCI anticancer screen, dose series, 48 h
786-0 renal = test system: 786-0 renal
A498 renal = test system: A498 renal
A549 NSCLC = test system: A549 NSCLC
ACHN renal = test system: ACHN renal
BT-549 breast = test system: BT-549 breast
CAKI-1 renal = test system: CAKI-1 renal
CCRF-CEM leukemia = test system: CCRF-CEM leukemia
COLO 205 colon = test system: COLO 205 colon
DU-145 prostate = test system: DU-145 prostate
EKVX NSCLC = test system: EKVX NSCLC
HCC-2998 colon = test system: HCC-2998 colon
HCT-116 colon = test system: HCT-116 colon
HCT-15 colon = test system: HCT-15 colon
HL-60(TB) leukemia = test system: HL-60(TB) leukemia
HOP-62 NSCLC = test system: HOP-62 NSCLC
HOP-92 NSCLC = test system: HOP-92 NSCLC
HS 578T breast = test system: HS 578T breast
HT29 colon = test system: HT29 colon
IGROV1 ovarian = test system: IGROV1 ovarian
K-562 leukemia = test system: K-562 leukemia
KM12 colon = test system: KM12 colon
LOX IMVI melanoma = test system: LOX IMVI melanoma
M14 melanoma = test system: M14 melanoma
MALME-3M melanoma = test system: MALME-3M melanoma
MCF7 breast = test system: MCF7 breast
MDA-MB-435 = test system: MDA-MB-435
MDA-N = test system: MDA-N
MOLT-4 leukemia = test system: MOLT-4 leukemia
NCI-H226 lung = test system: NCI-H226 lung
NCI-H23 lung = test system: NCI-H23 lung
NCI-H460 lung = test system: NCI-H460 lung
NCI-H522 lung = test system: NCI-H522 lung
NCI/ADR-RES ovarian = test system: NCI/ADR-RES ovarian
OVCAR-3 ovarian = test system: OVCAR-3 ovarian
OVCAR-4 ovarian = test system: OVCAR-4 ovarian
OVCAR-5 ovarian = test system: OVCAR-5 ovarian
OVCAR-8 ovarian = test system: OVCAR-8 ovarian
PC-3 prostate = test system: PC-3 prostate
RPMI-8226 leukemia = test system: RPMI-8226 leukemia
RXF 393 renal = test system: RXF 393 renal
SF-268 CNS = test system: SF-268 CNS
SF-295 CNS = test system: SF-295 CNS
SF-539 CNS = test system: SF-539 CNS
SK-MEL-2 melanoma = test system: SK-MEL-2 melanoma
SK-MEL-28 melanoma = test system: SK-MEL-28 melanoma
SK-MEL-5 melanoma = test system: SK-MEL-5 melanoma
SK-OV-3 ovarian = test system: SK-OV-3 ovarian
SN12C renal = test system: SN12C renal
SNB-19 CNS = test system: SNB-19 CNS
SNB-75 CNS = test system: SNB-75 CNS
SR leukemia = test system: SR leukemia
SW-620 colon = test system: SW-620 colon
T-47D breast = test system: T-47D breast
TK-10 renal = test system: TK-10 renal
U251 CNS = test system: U251 CNS
UACC-257 melanoma = test system: UACC-257 melanoma
UACC-62 melanoma = test system: UACC-62 melanoma
UO-31 renal = test system: UO-31 renal
MDA-MB-231 breast = test system: MDA-MB-231 breast

For `O=C1c2c(Br)sc(Br)c2C(=O)C1(O)O`, the TGI (786-0 renal) was > 100 µM, the TGI (A498 renal) was > 100 µM and the TGI (A549 NSCLC) was > 100 µM. The TGI (ACHN renal) was > 100 µM, the TGI (BT-549 breast) was 37.9 µM and the TGI (CAKI-1 renal) was 33.3 µM. For the same compound, the TGI (CCRF-CEM leukemia) was 85 µM, the TGI (COLO 205 colon) was 50.7 µM and the TGI (DU-145 prostate) was > 100 µM. The TGI (EKVX NSCLC) was > 100 µM, the TGI (HCC-2998 colon) was > 100 µM and the TGI (HCT-116 colon) was 38.4 µM. For the same compound, the TGI (HCT-15 colon) was 73.4 µM, the TGI (HL-60(TB) leukemia) was > 100 µM and the TGI (HOP-62 NSCLC) was > 100 µM. For the same compound, the TGI (HOP-92 NSCLC) was 34.7 µM, the TGI (HS 578T breast) was > 100 µM and the TGI (HT29 colon) was > 100 µM. For the same compound, the TGI (IGROV1 ovarian) was > 100 µM, the TGI (K-562 leukemia) was 79.8 µM and the TGI (KM12 colon) was > 100 µM. The TGI (LOX IMVI melanoma) was > 100 µM, the TGI (M14 melanoma) was 33.6 µM and the TGI (MALME-3M melanoma) was 34.6 µM. The TGI (MCF7 breast) was > 100 µM, the TGI (MDA-MB-435) was 38.9 µM and the TGI (MDA-N) was > 100 µM. For the same compound, the TGI (MOLT-4 leukemia) was 93.5 µM, the TGI (NCI-H226 lung) was > 100 µM and the TGI (NCI-H23 lung) was 99.6 µM. The TGI (NCI-H460 lung) was > 100 µM, the TGI (NCI-H522 lung) was 37.3 µM and the TGI (NCI/ADR-RES ovarian) was > 100 µM. The TGI (OVCAR-3 ovarian) was 35.9 µM, the TGI (OVCAR-4 ovarian) was 34.3 µM and the TGI (OVCAR-5 ovarian) was 50.3 µM. For the same compound, the TGI (OVCAR-8 ovarian) was > 100 µM, the TGI (PC-3 prostate) was 51.1 µM and the TGI (RPMI-8226 leukemia) was > 100 µM. For the same compound, the TGI (RXF 393 renal) was 37.6 µM, the TGI (SF-268 CNS) was > 100 µM and the TGI (SF-295 CNS) was > 100 µM. For the same compound, the TGI (SF-539 CNS) was 39.4 µM, the TGI (SK-MEL-2 melanoma) was 86.7 µM and the TGI (SK-MEL-28 melanoma) was > 100 µM. The TGI (SK-MEL-5 melanoma) was 42.6 µM, the TGI (SK-OV-3 ovarian) was > 100 µM and the TGI (SN12C renal) was > 100 µM. For the same compound, the TGI (SNB-19 CNS) was > 100 µM, the TGI (SNB-75 CNS) was > 100 µM and the TGI (SR leukemia) was 57.4 µM. The TGI (SW-620 colon) was > 100 µM, the TGI (T-47D breast) was 49.4 µM and the TGI (TK-10 renal) was > 100 µM. The TGI (U251 CNS) was > 100 µM, the TGI (UACC-257 melanoma) was 37.4 µM and the TGI (UACC-62 melanoma) was > 100 µM. For the same compound, the TGI (UO-31 renal) was 58.2 µM.

With `CC(NC(=O)c1c(O)[nH]c(=S)[nH]c1=O)c1ccc([N+](=O)[O-])cc1` (configuration not stated) the TGI (786-0 renal) was > 100 µM, the TGI (A549 NSCLC) was > 100 µM and the TGI (ACHN renal) was > 100 µM. For the same compound, the TGI (BT-549 breast) was > 100 µM, the TGI (CAKI-1 renal) was > 100 µM and the TGI (CCRF-CEM leukemia) was > 100 µM. For the same compound, the TGI (COLO 205 colon) was > 100 µM, the TGI (DU-145 prostate) was > 100 µM and the TGI (EKVX NSCLC) was > 100 µM. For the same compound, the TGI (HCC-2998 colon) was > 100 µM, the TGI (HCT-116 colon) was > 100 µM and the TGI (HCT-15 colon) was > 100 µM. The TGI (HL-60(TB) leukemia) was > 100 µM, the TGI (HOP-62 NSCLC) was > 100 µM and the TGI (HOP-92 NSCLC) was > 100 µM. The TGI (HS 578T breast) was > 100 µM, the TGI (HT29 colon) was > 100 µM and the TGI (IGROV1 ovarian) was > 100 µM. For the same compound, the TGI (K-562 leukemia) was > 100 µM, the TGI (KM12 colon) was > 100 µM and the TGI (LOX IMVI melanoma) was > 100 µM. The TGI (M14 melanoma) was > 100 µM, the TGI (MCF7 breast) was > 100 µM and the TGI (MDA-MB-231 breast) was > 100 µM. For the same compound, the TGI (MDA-MB-435) was > 100 µM, the TGI (MDA-N) was > 100 µM and the TGI (MOLT-4 leukemia) was 95 µM. The TGI (NCI-H226 lung) was > 100 µM, the TGI (NCI-H23 lung) was > 100 µM and the TGI (NCI-H460 lung) was > 100 µM. The TGI (OVCAR-3 ovarian) was > 100 µM, the TGI (OVCAR-4 ovarian) was > 100 µM and the TGI (OVCAR-5 ovarian) was > 100 µM. The TGI (PC-3 prostate) was > 100 µM, the TGI (RPMI-8226 leukemia) was > 100 µM and the TGI (RXF 393 renal) was > 100 µM. For the same compound, the TGI (SF-268 CNS) was > 100 µM, the TGI (SF-295 CNS) was > 100 µM and the TGI (SF-539 CNS) was > 100 µM. The TGI (SK-MEL-2 melanoma) was > 100 µM, the TGI (SK-MEL-28 melanoma) was > 100 µM and the TGI (SK-MEL-5 melanoma) was > 100 µM. For the same compound, the TGI (SK-OV-3 ovarian) was > 100 µM, the TGI (SN12C renal) was > 100 µM and the TGI (SNB-19 CNS) was > 100 µM. For the same compound, the TGI (SNB-75 CNS) was 73.3 µM, the TGI (SW-620 colon) was > 100 µM and the TGI (T-47D breast) was > 100 µM. The TGI (TK-10 renal) was > 100 µM, the TGI (U251 CNS) was > 100 µM and the TGI (UACC-257 melanoma) was > 100 µM. For the same compound, the TGI (UACC-62 melanoma) was > 100 µM and the TGI (UO-31 renal) was > 100 µM.

With `COc1ccc(C2c3cc4c(cc3OC(N3CCOCC3)C2C)OCO4)cc1` (configuration not stated) the TGI (786-0 renal) was > 100 µM, the TGI (A498 renal) was 34.8 µM and the TGI (A549 NSCLC) was > 90.6 µM. For the same compound, the TGI (ACHN renal) was > 100 µM, the TGI (BT-549 breast) was > 100 µM and the TGI (CAKI-1 renal) was 55.1 µM. For the same compound, the TGI (CCRF-CEM leukemia) was > 78.2 µM, the TGI (COLO 205 colon) was > 100 µM and the TGI (DU-145 prostate) was > 100 µM. For the same compound, the TGI (EKVX NSCLC) was > 100 µM, the TGI (HCC-2998 colon) was 67 µM and the TGI (HCT-116 colon) was > 100 µM. For the same compound, the TGI (HCT-15 colon) was > 100 µM, the TGI (HL-60(TB) leukemia) was 91.2 µM and the TGI (HOP-62 NSCLC) was > 72.2 µM. The TGI (HOP-92 NSCLC) was 58.2 µM, the TGI (HS 578T breast) was 63 µM and the TGI (HT29 colon) was > 67.6 µM. For the same compound, the TGI (IGROV1 ovarian) was > 100 µM, the TGI (K-562 leukemia) was > 31.6 µM and the TGI (KM12 colon) was > 100 µM. For the same compound, the TGI (LOX IMVI melanoma) was > 79.5 µM, the TGI (M14 melanoma) was > 89 µM and the TGI (MALME-3M melanoma) was 40.7 µM. For the same compound, the TGI (MCF7 breast) was > 71.5 µM, the TGI (MDA-MB-435) was > 60.4 µM and the TGI (MDA-N) was > 82 µM. For the same compound, the TGI (MOLT-4 leukemia) was > 31.6 µM, the TGI (NCI-H23 lung) was > 100 µM and the TGI (NCI-H460 lung) was > 100 µM. The TGI (NCI-H522 lung) was > 82 µM, the TGI (NCI/ADR-RES ovarian) was > 91.2 µM and the TGI (OVCAR-3 ovarian) was > 86.1 µM. For the same compound, the TGI (OVCAR-4 ovarian) was > 100 µM, the TGI (OVCAR-5 ovarian) was > 87.5 µM and the TGI (OVCAR-8 ovarian) was > 100 µM. For the same compound, the TGI (PC-3 prostate) was > 100 µM, the TGI (RPMI-8226 leukemia) was 61.7 µM and the TGI (RXF 393 renal) was 63.3 µM. For the same compound, the TGI (SF-268 CNS) was > 100 µM, the TGI (SF-295 CNS) was 67.5 µM and the TGI (SF-539 CNS) was 68.6 µM. The TGI (SK-MEL-2 melanoma) was > 71 µM, the TGI (SK-MEL-28 melanoma) was > 88 µM and the TGI (SK-MEL-5 melanoma) was 72.4 µM. For the same compound, the TGI (SN12C renal) was > 100 µM, the TGI (SNB-19 CNS) was > 96.7 µM and the TGI (SNB-75 CNS) was > 100 µM. The TGI (SR leukemia) was > 76.1 µM, the TGI (SW-620 colon) was > 100 µM and the TGI (T-47D breast) was 61.6 µM. The TGI (TK-10 renal) was > 100 µM, the TGI (U251 CNS) was 68.1 µM and the TGI (UACC-257 melanoma) was > 100 µM. For the same compound, the TGI (UACC-62 melanoma) was > 95.6 µM and the TGI (UO-31 renal) was > 100 µM.
